Measured values: patent US8785631B2, “Oxazolone derivative compounds having a 3-oxa-1-azaspiro[4.5] core” (Seikagaku Corporation, priority 2006, dated 2014)
*1 amine or outer side, *2 acyl side, *3 side chain or, on linkers, in order; H or OH if unused. Where a SMILES comes first, the peptide text is derived from it. [ ]: non-standard residue; d: D form. The star is where a group is joined. Ac6c = NC1(C(=O)O)CCCCC1; Morpholide = C1CN(*)CCO1; Nle = CCCC[C@H](N)C(=O)O; Cbz = O=C(OCc1ccccc1)*; CO = O=C([*:1])[*:2]

Assays:
[1] = target: T1, Human cathepsin B (Homo sapiens, UniProt P07858); assay: Measurement of cathepsin B inhibitory activity; format: biochemical; settings: selectivity ratio B/K
T1 construct: purchased Calbiochem Corp
Experimental: (§1) Human cathepsin B (Calbiochem Corp.) was used for measurement. Activity was measured based on decomposition of the fluorescent substrate Z-Arg-Arg-MCA (Peptide Institute, Inc.) in compliance with the method of Barrett, et al.^3). Namely, the decomposition of 20 mM Z-Arg-Arg-MCA by cathepsin B was measured in 100 mM sodium potassium phosphate, 1 mM EDTA, 8 mM cysteine and 0.005% Brij35 at pH 6.0. The reaction was carried out for 30 minutes at 30° C., and stopped by the addition of 2×10^−5 M Calpeptin. After stopping the reaction, fluorescent intensity was measured at an excitation wavelength of 355 nm and measurement wavelength of 460 nm. Inhibition of cathepsin B by the compounds was examined using the reaction system described above.

[2] = target: T2, Human cathepsin L (Homo sapiens, UniProt P07711); assay: Measurement of cathepsin L inhibitory activity; format: biochemical; settings: selectivity ratio L/K
T2 construct: purchased Calbiochem Corp
Experimental: as §1, with “cathepsin L” for “cathepsin B”, “substrate Z-Phe-Arg-MCA” for “substrate Z-Arg-Arg-MCA”, “[…] Z-Phe-Arg-MCA” for “mM Z-Arg-Arg-MCA”, “sodium acetate, 5” for “sodium potassium phosphate, 1”, “EDTA, 4 mM urea,” for “EDTA,”, “pH 5.5.” for “pH 6.0.”

T2 sequence (P07711 114-333): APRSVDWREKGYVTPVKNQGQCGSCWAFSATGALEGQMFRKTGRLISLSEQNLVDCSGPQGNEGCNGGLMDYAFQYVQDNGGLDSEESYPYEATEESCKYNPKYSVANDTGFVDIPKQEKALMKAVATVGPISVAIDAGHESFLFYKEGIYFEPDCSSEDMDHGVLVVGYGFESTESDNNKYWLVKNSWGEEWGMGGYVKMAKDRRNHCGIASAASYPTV

| B/K (ratio of IC50 cathepsin B to cathepsin K) [1] | L/K (ratio of IC50 cathepsin L to cathepsin K) [2] | Compound |
| --- | --- | --- |
| 35 | 50 | CCCC[C@@H](C=O)NC(=O)C1(NC(=O)OCc2ccccc2)CCCCC1 [Reference Example 145, N-[[1-[[(Phenylmethoxy)carbonyl]amino]cyclohexyl]carbonyl]-L-norleucinal] (Cbz-[Ac6c]-[Nle]-aldehyde) |
| 30 | 35 | CC(C)C[C@H](NC(=O)c1ccco1)C(=O)N[C@H](C=O)C(C)C [Reference Example 151, N—[N-(2-Furanylcarbonyl)-L-leucyl]-L-valinal] |
| 4.3 | 7.3 | CCCC[C@@H](C=O)NC(=O)[C@H](CC(C)C)NC(=O)N1CCOCC1 [Reference Example 150, N—[N-(4-Morpholinylcarbonyl)-L-leucyl]-L-norleucinal] |
| 230 | 400 | CC(C)[C@@H](C=O)NC(=O)C1(NC(=O)OCc2ccccc2)CCCCC1 [Reference Example 144, N-[[1-[[(Phenylmethoxy)carbonyl]amino]cyclohexyl]carbonyl]-L-valinal] (Cbz-[Ac6c]-Val-aldehyde) |
| 58 | 74 | CC(C)C[C@H](NC(=O)OCc1ccccc1)C(=O)N[C@H](C=O)C(C)C [Reference Example 148, N—[N-[(Phenylmethoxy)carbonyl]-L-leucyl]-L-valinal] (Cbz-Leu-Val-aldehyde) |
| 87 | 370 | CC(C)[C@@H](C=O)NC(=O)C1(NC(=O)c2ccco2)CCCCC1 [Reference Example 146, N-[[1-[(2-Furanylcarbonyl)amino]cyclohexyl]carbonyl]-L-valinal] |
| 12 | 21 | CCCC[C@@H](C=O)NC(=O)C1(NC(=O)N2CCOCC2)CCCCC1 [Reference Example 147, N-[[1-[(4-Morpholinylcarbonyl)amino]cyclohexyl]carbonyl]-L-norleucinal] ({Morpholide-CO}-[Ac6c]-[Nle]-aldehyde) |

| Compound | B/K (ratio of IC50 cathepsin B to cathepsin K) [1] | L/K (ratio of IC50 cathepsin L to cathepsin K) [2] |
| --- | --- | --- |
| CCCC[C@@H](C=O)NC(=O)[C@H](CC(C)C)NC(=O)OCc1ccccc1 [Reference Example 149, N—[N-[(Phenylmethoxy)carbonyl]-L-leucyl]-L-norleucinal] | 11 | 15 |
